Among the test systems are SN12C renal; NCI-H226 lung; MCF7 breast; PC-3 prostate; RXF 393 renal; SNB-19 CNS; BT-549 breast; IGROV1 ovarian; HOP-92 NSCLC; MOLT-4 leukemia.
Holding throughout (experiment): inhibition of tumour cell growth, NCI panel, 48 h

The structures appear in SMILES notation.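 Method: 48-hour compound exposure of cells in 96-well plates, five concentrations, linear interpolation of endpoints. Abbreviation: GI50, concentration required for 50% inhibition of growth. Definition used: TGI = concentration required for complete inhibition of growth.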 A value given as a limit tells only on which side of the number the result lay.

Turning to `COc1ccc(/C(=N\O)c2cc(OC)c(OC)c(OC)c2)c(OC)c1N`, the GI50 with SN12C renal is 7.9 µM; in the assay with NCI-H226 lung, 46.6 µM; in the assay on MCF7 breast it was 2.46 µM; in the assay with PC-3 prostate, 4 µM; in the assay on RXF 393 renal, 2.79 µM; with SNB-19 CNS, 5.61 µM. Besides, the GI50 with BT-549 breast was 3.86 µM; with IGROV1 ovarian, 6.83 µM; with HOP-92 NSCLC it was greater than 100 µM; in the assay on MOLT-4 leukemia it was 3.95 µM. The TGI in the assay with SN12C renal, in the assay with NCI-H226 lung, in the assay with MCF7 breast, with PC-3 prostate, in the assay on RXF 393 renal and in the assay with SNB-19 CNS was greater than 100 µM each time. For the same compound, the TGI in the assay on BT-549 breast, with IGROV1 ovarian, in the assay with HOP-92 NSCLC and in the assay with MOLT-4 leukemia was greater than 100 µM in each case.

For the compound `COc1cc2c3c(n(CCCCNC(=O)OCC4c5ccccc5-c5ccccc54)c(=O)c2cc1OC)-c1cc2c(cc1C3=O)OCO2`, the GI50 in the assay on SN12C renal was 10.7 µM; in the assay on NCI-H226 lung, 31.1 µM; in the assay on MCF7 breast it was 0.554 µM; with PC-3 prostate it was 13.7 µM; in the assay on RXF 393 renal, 15.9 µM; with SNB-19 CNS it was 81.6 µM. Also, the GI50 was 79.1 µM with BT-549 breast, 17.9 µM in the assay with IGROV1 ovarian, 1.49 µM in the assay on HOP-92 NSCLC and 0.281 µM with MOLT-4 leukemia. Further, the TGI in the assay on SN12C renal was 93 µM; with NCI-H226 lung, greater than 100 µM; in the assay with MCF7 breast, 16.2 µM; in the assay with PC-3 prostate, 55.6 µM; in the assay on RXF 393 renal, 58.6 µM; with SNB-19 CNS it was greater than 100 µM. Also, the TGI was greater than 100 µM in the assay with BT-549 breast, greater than 100 µM with IGROV1 ovarian, 9.69 µM with HOP-92 NSCLC and 1.81 µM in the assay with MOLT-4 leukemia.

Turning to `O=C1/C(=C/c2ccc([N+](=O)[O-])o2)Oc2ccccc21`, the GI50 was 2.17 µM with SN12C renal; 1.94 µM in the assay with NCI-H226 lung; 0.827 µM in the assay on MCF7 breast; 2.25 µM with PC-3 prostate; 1.61 µM with RXF 393 renal; 5.06 µM with SNB-19 CNS. In addition, the GI50 was 1.76 µM in the assay with BT-549 breast, 1.37 µM in the assay on IGROV1 ovarian, 0.912 µM with HOP-92 NSCLC and 1.35 µM in the assay with MOLT-4 leukemia. Also, the TGI amounted to 5.53 µM in the assay with SN12C renal; 4.98 µM in the assay with NCI-H226 lung; 3.11 µM with MCF7 breast; 7.12 µM with PC-3 prostate; 3.24 µM in the assay with RXF 393 renal; 18.6 µM with SNB-19 CNS. Further, the TGI with BT-549 breast was 3.74 µM; in the assay on IGROV1 ovarian, 3.62 µM; in the assay on HOP-92 NSCLC it was 2.62 µM; in the assay with MOLT-4 leukemia it was 3.7 µM.

Regarding `O=C1/C(=C/c2ccc(Cl)cc2)CN(Cc2cn(CCNc3ccnc4cc(Cl)ccc34)nn2)C/C1=C\c1ccc(Cl)cc1`, the GI50 in the assay with SN12C renal is 1.08 µM; in the assay on NCI-H226 lung it was 0.84 µM; in the assay on MCF7 breast, 0.376 µM; in the assay with PC-3 prostate it was 0.26 µM; in the assay with RXF 393 renal, 0.201 µM; with SNB-19 CNS, 0.319 µM. The GI50 with BT-549 breast was 0.488 µM; in the assay with IGROV1 ovarian it was 0.276 µM; in the assay with HOP-92 NSCLC it was 0.496 µM; in the assay with MOLT-4 leukemia it was 0.499 µM. For the same compound, the TGI stood at 3.38 µM with SN12C renal; 2.69 µM with NCI-H226 lung; 1.37 µM in the assay on MCF7 breast; 0.776 µM in the assay with PC-3 prostate; 0.416 µM with RXF 393 renal; 1.27 µM in the assay on SNB-19 CNS. Besides, the TGI is 1.44 µM in the assay with BT-549 breast, 0.732 µM in the assay on IGROV1 ovarian, 1.83 µM in the assay on HOP-92 NSCLC and greater than 100 µM in the assay on MOLT-4 leukemia.

For `COc1cc(C(=O)/C=C/c2c(-c3ccc(F)cc3)nc3ncccn23)cc(OC)c1OC`, the GI50 was 2.26 µM with SN12C renal; 3.08 µM in the assay with NCI-H226 lung; 1.61 µM with MCF7 breast; 4.35 µM with PC-3 prostate; 1.44 µM with RXF 393 renal; 3.12 µM in the assay on SNB-19 CNS. Besides, the GI50 was 1.8 µM with BT-549 breast, 1.93 µM with IGROV1 ovarian, 1.77 µM in the assay with HOP-92 NSCLC and 3.75 µM in the assay with MOLT-4 leukemia. Besides, the TGI is 36.1 µM in the assay with SN12C renal; 18.9 µM with NCI-H226 lung; 15.6 µM with MCF7 breast; greater than 100 µM in the assay with PC-3 prostate; 4.09 µM in the assay with RXF 393 renal; 15.5 µM in the assay on SNB-19 CNS. The TGI was 19.4 µM in the assay with BT-549 breast, 9.53 µM with IGROV1 ovarian, 92.9 µM in the assay on HOP-92 NSCLC and greater than 100 µM in the assay on MOLT-4 leukemia.

The values are drawn from PubChem BioAssay (NCI).
